From patent publication US20210130767A1, “Species of Genus Pholiota and Artificial Cultivation Method and Use Thereof” (Guangdong Institute of Microbiology (Guangdong Detection …, priority 2019, published 2021)

Test system: Staphylococcus aureus
Experiment: Determination of inhibition zone (agar well diffusion, coating / pour plate method)
Assay type: cell-based
Conditions: 24 h, 37° C., 1 day, x ± s, n = 3, positive control ampicillin 5 μg/mL, read-out: inhibition zone diameter
Protocol: Bacterial medium: nutrient agar/broth medium;
Nutrition agar/broth medium: beef paste 3 g, peptone 10 g, sodium chloride 5 g, agar 15 g, add water to 1000 ml, and adjust the pH to 7.4 (nutrient broth without agar).
Preparation of ethyl acetate extract: using rice medium (formulated rice and water), the strain of the present invention was incubated and cultured for 45 days, ethyl acetate was added, ultrasonic extraction was performed twice, 40 minutes for each time, and the extract was combined. The solvent was recovered in a rotary evaporator, and steamed to about 1-2 mL of the extract, and transferred to a collection bottle, the ethyl acetate extract is obtained and placed in a vacuum desiccator. After the solvent was completely evaporated, it was transferred to a refrigerator at 4° C. for use, and was filtrated and sterilizd with the bacteria syringe and filter for use.
Positive control preparation: Ampicillin solution, diluted with sterile water to a concentration of 5 μg/mL of the control solution, UV sterilization for 30 min. […]
The counted bacteria solution was diluted to a final concentration of 10^5˜10^6 cfu/mL, and 200 μL of the prepared bacteria suspension was pipetted onto the plate and uniformly coated with a coater. […] The culture was allowed to stand for 1 day, and the size of inhibition zone was measured. […]

CC1(C)S[C@@H]2[C@H](NC(=O)[C@H](N)c3ccccc3)C(=O)N2[C@H]1C(=O)O [Positive control, Ampicillin]
zone of inhibition at 5 µg/mL: 19.8 ± 1.7 mm
